Patent US20230220063A1, “IL-1BETA BINDING ANTIBODIES FOR USE IN TREATING CANCER” (NOVARTIS AG, priority 2017, published 2023)

Columns and labels:
[1] = system: incident cancers in post-myocardial infarction patients with hsCRP ≥2 mg/L; experiment: CANTOS trial: incident cancers, cancer mortality, canakinumab vs placebo; assay type: in vivo, human
mouse IL-1β = mouse IL-1β (Mus musculus, UniProt P10749); experiment: Cross-reactivity with mouse IL-1β; assay type: binding
Description: A mouse surrogate anti-IL-1β antibody has been developed and is being used to evaluate the effects of blocking IL-1β in mouse models of cancer. This isotype of the surrogate antibody is IgG2a, which is closely related to human IgG1.

mouse IL-1β, sequence (P10749 118-269): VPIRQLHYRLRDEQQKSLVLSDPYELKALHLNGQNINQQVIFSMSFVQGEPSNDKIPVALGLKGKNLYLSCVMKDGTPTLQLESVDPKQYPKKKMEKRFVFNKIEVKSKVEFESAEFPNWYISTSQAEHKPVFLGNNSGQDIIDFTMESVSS

canakinumab: high-affinity, fully human monoclonal antibody of the IgG1/k to interleukin-1β; INN number 8836
Lung Cancers: Pleural cancer, incidence rate (number) ([1]; 150 mg SC q 3 months): 0 per 100 person years | Lung Cancers: Small cell lung cancer, incidence rate (number) ([1]; 150 mg SC q 3 months): 0.01 (1) per 100 person years | Lung Cancers: Squamous cell lung carcinoma, incidence rate (number) ([1]; 150 mg SC q 3 months): 0.02 (2) per 100 person years | Other cancer sites: Other, incidence rate (number) ([1]; 150 mg SC q 3 months): 0.06(5) per 100 person years | Sarcoma / Bone, incidence rate (number) ([1]; 150 mg SC q 3 months): 0 per 100 person years | Skin: Basal cell carcinoma, incidence rate (number) ([1]; 150 mg SC q 3 months): 0.29(25) per 100 person years | Skin: Melanoma, incidence rate (number) ([1]; 150 mg SC q 3 months): 0.06(5) per 100 person years | Skin: Other, incidence rate (number) ([1]; 150 mg SC q 3 months): 0.06(5) per 100 person years | Skin: Squamous cell skin cancer, incidence rate (number) ([1]; 150 mg SC q 3 months): 0.15(13) per 100 person years | Lung Cancers: Adenocarcinoma or poorly differentiated large cell carcinoma or unspecified, incidence rate (number) ([1]; 150 mg SC q 3 months, listed as Canakinumab): 0.27 (23) per 100 person years | Breast, incidence rate (number) ([1]; 300 mg SC q 3 months): 0.06(5) per 100 person years | Central Nervous System, incidence rate (number) ([1]; 300 mg SC q 3 months): 0.03(3) per 100 person years | Endocrine: Adrenal, incidence rate (number) ([1]; 300 mg SC q 3 months): 0.01(1) per 100 person years | Endocrine: Thyroid, incidence rate (number) ([1]; 300 mg SC q 3 months): 0.01(1) per 100 person years | Gastrointenstinal: Appendiceal, incidence rate (number) ([1]; 300 mg SC q 3 months): 0.01(1) per 100 person years | Gastrointenstinal: Biliary, incidence rate (number) ([1]; 300 mg SC q 3 months): 0 per 100 person years | Gastrointenstinal: Colorectal, incidence rate (number) ([1]; 300 mg SC q 3 months): 0.21(18) per 100 person years | Gastrointenstinal: Esophageal, incidence rate (number) ([1]; 300 mg SC q 3 months): 0.08(7) per 100 person years | Gastrointenstinal: Gastric, incidence rate (number) ([1]; 300 mg SC q 3 months): 0.06(5) per 100 person years | Gastrointenstinal: Oral cavity/tongue, incidence rate (number) ([1]; 300 mg SC q 3 months): 0.02(2) per 100 person years | Gastrointenstinal: Pancreatic, incidence rate (number) ([1]; 300 mg SC q 3 months): 0.06(5) per 100 person years | Genitourinary: Bladder, incidence rate (number) ([1]; 300 mg SC q 3 months): 0.13(11) per 100 person years | Genitourinary: Cervical, incidence rate (number) ([1]; 300 mg SC q 3 months): 0 per 100 person years | Genitourinary: Endometrial/Uterine, incidence rate (number) ([1]; 300 mg SC q 3 months): 0.03(3) per 100 person years | Genitourinary: Ovarian, incidence rate (number) ([1]; 300 mg SC q 3 months): 0 per 100 person years | Genitourinary: Prostate, incidence rate (number) ([1]; 300 mg SC q 3 months): 0.17(15) per 100 person years | Genitourinary: Testicular, incidence rate (number) ([1]; 300 mg SC q 3 months): 0 per 100 person years | Hematopoetic: Leukemia, incidence rate (number) ([1]; 300 mg SC q 3 months): 0.01(1) per 100 person years | Hematopoetic: Lymphoma, incidence rate (number) ([1]; 300 mg SC q 3 months): 0.07(6) per 100 person years | Hematopoetic: Multiple myeloma, incidence rate (number) ([1]; 300 mg SC q 3 months): 0.02(2) per 100 person years | Kidney, incidence rate (number) ([1]; 300 mg SC q 3 months): 0.07(6) per 100 person years | Liver, incidence rate (number) ([1]; 300 mg SC q 3 months): 0.03(3) per 100 person years | Lung Cancers: Adenocarcinoma or poorly differentiated large cell carcinoma or unspecified, incidence rate (number) ([1]; 300 mg SC q 3 months): 0.12 per 100 person years | Lung Cancers: Pleural cancer, incidence rate (number) ([1]; 300 mg SC q 3 months): 0 per 100 person years | Lung Cancers: Small cell lung cancer, incidence rate (number) ([1]; 300 mg SC q 3 months): 0.01 (1) per 100 person years | Lung Cancers: Squamous cell lung carcinoma, incidence rate (number) ([1]; 300 mg SC q 3 months): 0.03 (3) per 100 person years | Other cancer sites: Other, incidence rate (number) ([1]; 300 mg SC q 3 months): 0.02(2) per 100 person years | Sarcoma / Bone, incidence rate (number) ([1]; 300 mg SC q 3 months): 0.01(1) per 100 person years | Skin: Basal cell carcinoma, incidence rate (number) ([1]; 300 mg SC q 3 months): 0.21(18) per 100 person years | Skin: Melanoma, incidence rate (number) ([1]; 300 mg SC q 3 months): 0.06(5) per 100 person years | Skin: Other, incidence rate (number) ([1]; 300 mg SC q 3 months): 0.02(2) per 100 person years | Skin: Squamous cell skin cancer, incidence rate (number) ([1]; 300 mg SC q 3 months): 0.27(23) per 100 person years | Lung Cancers: Adenocarcinoma or poorly differentiated large cell carcinoma or unspecified, incidence rate (number) ([1]; 300 mg SC q 3 months, listed as Canakinumab): 0.12 (10) per 100 person years | total cancer mortality ([1]; 300 mg SC, vs placebo): fell by half | Breast, incidence rate (number) ([1]; All Doses): 0.06(16) per 100 person years | Central Nervous System, incidence rate (number) ([1]; All Doses): 0.04(10) per 100 person years | Endocrine: Adrenal, incidence rate (number) ([1]; All Doses): 0.01(2) per 100 person years | Endocrine: Thyroid, incidence rate (number) ([1]; All Doses): 0.02(4) per 100 person years | Gastrointenstinal: Appendiceal, incidence rate (number) ([1]; All Doses): 0.00(1) per 100 person years | Gastrointenstinal: Biliary, incidence rate (number) ([1]; All Doses): 0.02(5) per 100 person years | Gastrointenstinal: Colorectal, incidence rate (number) ([1]; All Doses): 0.21(54) per 100 person years | Gastrointenstinal: Esophageal, incidence rate (number) ([1]; All Doses): 0.06(16) per 100 person years | Gastrointenstinal: Gastric, incidence rate (number) ([1]; All Doses): 0.04(10) per 100 person years | Gastrointenstinal: Oral cavity/tongue, incidence rate (number) ([1]; All Doses): 0.03(8) per 100 person years | Gastrointenstinal: Pancreatic, incidence rate (number) ([1]; All Doses): 0.05(13) per 100 person years | Genitourinary: Bladder, incidence rate (number) ([1]; All Doses): 0.10(26) per 100 person years | Genitourinary: Cervical, incidence rate (number) ([1]; All Doses): 0.00(1) per 100 person years | Genitourinary: Endometrial/Uterine, incidence rate (number) ([1]; All Doses): 0.02(5) per 100 person years | Genitourinary: Ovarian, incidence rate (number) ([1]; All Doses): 0.00(1) per 100 person years | Genitourinary: Prostate, incidence rate (number) ([1]; All Doses): 0.17(44) per 100 person years | Genitourinary: Testicular, incidence rate (number) ([1]; All Doses): 0.00(1) per 100 person years | Hematopoetic: Leukemia, incidence rate (number) ([1]; All Doses): 0.02(4) per 100 person years | Hematopoetic: Lymphoma, incidence rate (number) ([1]; All Doses): 0.05(13) per 100 person years | Hematopoetic: Multiple myeloma, incidence rate (number) ([1]; All Doses): 0.01(2) per 100 person years | Kidney, incidence rate (number) ([1]; All Doses): 0.09(22) per 100 person years | Liver, incidence rate (number) ([1]; All Doses): 0.04(11) per 100 person years | Lung Cancers: Adenocarcinoma or poorly differentiated large cell carcinoma or unspecified, incidence rate (number) ([1]; All Doses): 0.23 (59) per 100 person years | Lung Cancers: Pleural cancer, incidence rate (number) ([1]; All Doses): 0 per 100 person years | Lung Cancers: Small cell lung cancer, incidence rate (number) ([1]; All Doses): 0.01 (3) per 100 person years | Lung Cancers: Squamous cell lung carcinoma, incidence rate (number) ([1]; All Doses): 0.02 (6) per 100 person years | Other cancer sites: Other, incidence rate (number) ([1]; All Doses): 0.05(13) per 100 person years | Sarcoma / Bone, incidence rate (number) ([1]; All Doses): 0.01(2) per 100 person years | Skin: Basal cell carcinoma, incidence rate (number) ([1]; All Doses): 0.26(65) per 100 person years | Skin: Melanoma, incidence rate (number) ([1]; All Doses): 0.06(16) per 100 person years | Skin: Other, incidence rate (number) ([1]; All Doses): 0.03(7) per 100 person years | Skin: Squamous cell skin cancer, incidence rate (number) ([1]; All Doses): 0.17(44) per 100 person years | share of all cancers that were lung cancers ([1]; among those assigned to canakinumab (placebo 26.0%)): 16% | share of cancer deaths that were lung cancers ([1]; among those assigned to canakinumab (placebo 47%)): 34% | cross-reactivity with mouse IL-1β (mouse IL-1β): does not cross-react
